Assay results taken from patent US20120315308A1, “METHODS AND DEVICES FOR CONTROLLING PARTICLE SIZE AND PARTICLE SIZE DISTRIBUTION” (priority 2010, published 2012).
“And” between values parts separate entries of the source, which are not always exact repeats. Identical values can stand only once. Like-named read-outs stand apart in the source and are kept apart here.

Description: A submicron dispersion of naproxen was prepared using the enhanced initial dispersion followed by a secondary high shear mixing process. The following equipment was used for the experiment:
(1) An Ivek Digispense 3009 controller with an AP motor/base assembly and a AA pump body.
(2) A Micronoson Ultrasonic Cell Distruptor, XL 100 watt ultrasonic controller and a Misonix 22.5 kHz ultrasonic transducer horn with a coaxillal center feed.
(3) Microfluidizer—Microfluidics M-110EH-25 high shear processor with a 75 micron F-20Y interaction chamber.
(4) Horiba LA-950 Laser Diffraction Particle Size Analyzer.
The Ivek Digispense pump speed was calibrated to 20 mL/min.
The end of the ultrasonic horn, also referred to as an ultrasonic probe, was suspended in air, the power to the Ivek pump and the ultrasonic probe was turned on. Ultrasonic power was set to 20 watts. The height of the ultrasonic probe dispense tubing was adjusted until the feed liquid was dispersed as small droplets, thereby creating a fine spray. The tubing was fixed at this height, as above and below this height, dispensed liquid simply drips from the probe.
The tip of the ultrasonic transducer horn was secured just above the check valve in the feed reservoir. The antisolvent was a 0.5% Triton X-100 in dionized water, and 190 mL of the antisolvent was added to the inlet reservoir of the Microfluidizer. Naproxen has a tendency to agglomerate, therefore, nonionic Triton X-100 surfactant was used as the antisolvent.
DMSO was used as the solvent and it contained 13.75 g naproxen per 100 mL solvent. An ice bath was used to chill the sample to avoid over heating with multiple passes.
The microfluidizer pressure was set to 24,000 psi, using the antisolvent. […] The outlet from the cooling coil of the microfluidizer was placed in the inlet reservoir to allow for recycling of the process. The Ivek Pump was set for 20 mL/min.
With the Microfluidizer running at 24,000 psi in a recirculation mode the Pump and Ulrasonic Probe were simutaneously turned on for 30 seconds and then immediately turned off. A single pass sample was collected for particle size analyzsis. This sample contained 1.375 grams of naproxen in the mixed solution of DMSO & 0.5% triton X-100 DI water. The Microfluidizer continued to run for an additional 150 seconds for a total of 180 seconds. After six passes, a sample was collected to evaulate particle size.
The graph presented in FIG. 3 is a plot of naproxen particle diameter (x axis) vs. frequency of occurrence of the particle diameter (y axis). Table 6 provides the mean and median particle size for each run.

[1] = no ultrasonic step, 1 pass through Microfluidizer at 24,000 psi
[2] = no ultrasonic step, 6 passes through Microfluidizer at 24,000 psi
[3] = with ultrasonic initial mixing, 1 pass through Microfluidizer at 24,000 psi, DMSO / 0.5% Triton X-100 in water
[4] = with ultrasonic initial mixing, 6 passes through Microfluidizer at 24,000 psi, DMSO / 0.5% Triton X-100 in water

For `COc1ccc2cc([C@H](C)C(=O)O)ccc2c1` [naproxen], the “Mean Particle Size” value [1] was 4.65 μm and 8.199 μm, the Median particle size [1] was 4.784 μm and 8.324 μm and the “Mean Particle Size” value [2] was 2.4845 μm and 2.47 μm. For the same compound, the Median particle size [2] was 1.214 μm and 1.696 μm, the “Mean Particle Size” value [3] was 1.021 μm and 1.257 μm and the Median particle size [3] was 0.3267 μm and 0.6459 μm. The “Mean Particle Size” value [4] was 0.6051 μm and 0.606 μm, the Median particle size [4] was 0.5067 μm and 0.4602 μm and the “median naproxen particle size (diameter)” value (with ultrasonic initial mixing, regardless of how many passes were employed) was “less than 1 μm”.
